# According to PMC11864979, “First-in-class ultralong-target-residence-time p38α inhibitors as a mitosis-targeted therapy for colorectal cancer” (Nature Cancer, 2025):
# Where two headings read alike, the source gives them in different places.
# Columns and labels:
# Assay in all cases: selectivity profiling in a panel of 340 wild-type kinases (Reaction Biology Europe)
# Format in all cases: binding
# 340 wild-type kinases [1] = biological target: T1, 340 wild-type kinases (Homo sapiens, UniProt P21802)
# T1 construct: purchased Reaction Biology Europe
# 340 wild-type kinases [2] = biological target: T2, 340 wild-type kinases (Homo sapiens, UniProt Q9NQU5)
# T2 construct: purchased Reaction Biology Europe
# 340 wild-type kinases [3] = biological target: T3, 340 wild-type kinases (Homo sapiens, UniProt Q99759)
# T3 construct: purchased Reaction Biology Europe
# T3 sequence (Q99759 1-626): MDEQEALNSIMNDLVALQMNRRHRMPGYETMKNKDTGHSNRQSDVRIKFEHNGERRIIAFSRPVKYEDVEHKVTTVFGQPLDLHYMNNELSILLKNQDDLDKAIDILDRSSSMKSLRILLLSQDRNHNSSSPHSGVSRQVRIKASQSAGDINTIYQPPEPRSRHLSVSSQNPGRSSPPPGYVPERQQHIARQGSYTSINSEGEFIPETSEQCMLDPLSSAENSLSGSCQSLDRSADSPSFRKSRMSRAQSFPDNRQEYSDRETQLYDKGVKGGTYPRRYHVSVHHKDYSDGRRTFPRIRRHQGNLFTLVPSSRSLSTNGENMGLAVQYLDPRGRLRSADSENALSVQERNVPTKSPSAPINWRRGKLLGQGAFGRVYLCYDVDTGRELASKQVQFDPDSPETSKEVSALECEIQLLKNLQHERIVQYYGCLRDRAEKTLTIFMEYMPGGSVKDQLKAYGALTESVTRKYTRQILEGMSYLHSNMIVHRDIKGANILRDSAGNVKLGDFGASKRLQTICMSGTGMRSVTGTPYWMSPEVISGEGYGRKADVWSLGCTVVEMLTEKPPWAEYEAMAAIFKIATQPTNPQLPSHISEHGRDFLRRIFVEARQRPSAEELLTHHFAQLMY
# 340 wild-type kinases [4] = biological target: T4, 340 wild-type kinases (Homo sapiens, UniProt Q99640)
# T4 construct: purchased Reaction Biology Europe
# T4 sequence (Q99640 1-499): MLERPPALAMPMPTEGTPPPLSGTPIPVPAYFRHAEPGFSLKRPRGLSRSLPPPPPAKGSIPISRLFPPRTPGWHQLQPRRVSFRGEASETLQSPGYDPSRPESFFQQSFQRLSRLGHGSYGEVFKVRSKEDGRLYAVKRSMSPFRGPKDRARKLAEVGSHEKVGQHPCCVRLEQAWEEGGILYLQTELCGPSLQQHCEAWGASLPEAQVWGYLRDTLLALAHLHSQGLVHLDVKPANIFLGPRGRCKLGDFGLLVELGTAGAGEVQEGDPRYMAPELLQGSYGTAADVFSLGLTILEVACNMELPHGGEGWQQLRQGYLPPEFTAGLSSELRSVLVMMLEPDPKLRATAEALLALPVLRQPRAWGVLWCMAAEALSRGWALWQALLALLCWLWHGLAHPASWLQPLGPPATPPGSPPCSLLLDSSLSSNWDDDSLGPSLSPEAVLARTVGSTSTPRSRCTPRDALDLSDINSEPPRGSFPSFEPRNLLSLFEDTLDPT
# 340 wild-type kinases [5] = biological target: T5, 340 wild-type kinases (Homo sapiens, UniProt P78368)
# T5 construct: purchased Reaction Biology Europe
# 340 wild-type kinases [6] = biological target: T6, 340 wild-type kinases (Homo sapiens, UniProt P00533)
# T6 construct: purchased Reaction Biology Europe
# 340 wild-type kinases [7] = biological target: T7, 340 wild-type kinases (Homo sapiens, UniProt P24941)
# T7 construct: purchased Reaction Biology Europe
# 340 wild-type kinases [8] = biological target: T8, 340 wild-type kinases (Homo sapiens, UniProt Q9HBY8)
# T8 construct: purchased Reaction Biology Europe
# T8 sequence (Q9HBY8 1-367): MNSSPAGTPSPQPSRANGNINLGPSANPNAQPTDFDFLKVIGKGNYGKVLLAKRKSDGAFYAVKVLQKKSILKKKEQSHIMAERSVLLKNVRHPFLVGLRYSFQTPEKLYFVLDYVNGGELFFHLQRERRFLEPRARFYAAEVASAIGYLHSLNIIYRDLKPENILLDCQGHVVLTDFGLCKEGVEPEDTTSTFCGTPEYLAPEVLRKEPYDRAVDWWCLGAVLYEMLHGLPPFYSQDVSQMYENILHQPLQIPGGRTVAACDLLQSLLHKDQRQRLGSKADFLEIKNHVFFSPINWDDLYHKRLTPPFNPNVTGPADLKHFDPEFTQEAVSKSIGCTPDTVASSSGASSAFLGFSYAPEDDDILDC
# 340 wild-type kinases [9] = biological target: T9, 340 wild-type kinases (Homo sapiens, UniProt Q99558)
# T9 construct: purchased Reaction Biology Europe
# 340 wild-type kinases [10] = biological target: T10, 340 wild-type kinases (Homo sapiens, UniProt P49759)
# T10 construct: purchased Reaction Biology Europe
# 340 wild-type kinases [11] = biological target: T11, 340 wild-type kinases (Homo sapiens, UniProt P09769)
# T11 construct: purchased Reaction Biology Europe
# T11 sequence (P09769 whole entry): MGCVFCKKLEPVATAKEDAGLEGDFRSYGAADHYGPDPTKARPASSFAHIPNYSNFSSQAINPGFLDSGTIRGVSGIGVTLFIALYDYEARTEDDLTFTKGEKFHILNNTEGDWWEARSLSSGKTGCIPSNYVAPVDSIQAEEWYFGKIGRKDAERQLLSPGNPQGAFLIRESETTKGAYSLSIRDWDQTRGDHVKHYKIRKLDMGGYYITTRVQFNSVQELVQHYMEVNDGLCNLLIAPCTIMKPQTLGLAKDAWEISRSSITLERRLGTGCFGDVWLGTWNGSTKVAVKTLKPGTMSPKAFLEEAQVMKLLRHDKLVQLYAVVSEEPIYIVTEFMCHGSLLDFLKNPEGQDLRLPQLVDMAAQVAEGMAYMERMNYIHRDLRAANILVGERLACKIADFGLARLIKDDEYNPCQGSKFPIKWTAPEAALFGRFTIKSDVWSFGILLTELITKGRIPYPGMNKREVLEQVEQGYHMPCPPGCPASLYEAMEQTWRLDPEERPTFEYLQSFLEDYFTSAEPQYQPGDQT
# T1 sequence (P21802 22-821): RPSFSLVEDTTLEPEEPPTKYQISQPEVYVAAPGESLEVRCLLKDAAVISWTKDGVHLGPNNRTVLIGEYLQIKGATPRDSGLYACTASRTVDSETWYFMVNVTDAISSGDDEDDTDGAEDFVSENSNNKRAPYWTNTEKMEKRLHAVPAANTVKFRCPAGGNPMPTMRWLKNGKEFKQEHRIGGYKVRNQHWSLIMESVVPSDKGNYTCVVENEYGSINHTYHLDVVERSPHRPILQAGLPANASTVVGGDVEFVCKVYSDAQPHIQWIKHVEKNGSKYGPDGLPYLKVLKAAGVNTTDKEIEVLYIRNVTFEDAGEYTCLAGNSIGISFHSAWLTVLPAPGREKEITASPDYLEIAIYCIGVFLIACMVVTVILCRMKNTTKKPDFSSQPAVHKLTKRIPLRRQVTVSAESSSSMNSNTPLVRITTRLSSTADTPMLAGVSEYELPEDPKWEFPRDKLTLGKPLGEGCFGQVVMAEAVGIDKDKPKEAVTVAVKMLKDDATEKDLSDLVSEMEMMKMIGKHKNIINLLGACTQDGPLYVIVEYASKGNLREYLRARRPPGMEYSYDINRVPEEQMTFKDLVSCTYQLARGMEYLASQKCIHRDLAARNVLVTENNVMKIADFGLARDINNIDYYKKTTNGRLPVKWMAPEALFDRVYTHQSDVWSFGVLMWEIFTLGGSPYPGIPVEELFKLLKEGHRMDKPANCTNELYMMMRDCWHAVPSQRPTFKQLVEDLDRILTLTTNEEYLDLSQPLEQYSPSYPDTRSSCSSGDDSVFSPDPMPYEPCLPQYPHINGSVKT
# T6 sequence (P00533 25-1210): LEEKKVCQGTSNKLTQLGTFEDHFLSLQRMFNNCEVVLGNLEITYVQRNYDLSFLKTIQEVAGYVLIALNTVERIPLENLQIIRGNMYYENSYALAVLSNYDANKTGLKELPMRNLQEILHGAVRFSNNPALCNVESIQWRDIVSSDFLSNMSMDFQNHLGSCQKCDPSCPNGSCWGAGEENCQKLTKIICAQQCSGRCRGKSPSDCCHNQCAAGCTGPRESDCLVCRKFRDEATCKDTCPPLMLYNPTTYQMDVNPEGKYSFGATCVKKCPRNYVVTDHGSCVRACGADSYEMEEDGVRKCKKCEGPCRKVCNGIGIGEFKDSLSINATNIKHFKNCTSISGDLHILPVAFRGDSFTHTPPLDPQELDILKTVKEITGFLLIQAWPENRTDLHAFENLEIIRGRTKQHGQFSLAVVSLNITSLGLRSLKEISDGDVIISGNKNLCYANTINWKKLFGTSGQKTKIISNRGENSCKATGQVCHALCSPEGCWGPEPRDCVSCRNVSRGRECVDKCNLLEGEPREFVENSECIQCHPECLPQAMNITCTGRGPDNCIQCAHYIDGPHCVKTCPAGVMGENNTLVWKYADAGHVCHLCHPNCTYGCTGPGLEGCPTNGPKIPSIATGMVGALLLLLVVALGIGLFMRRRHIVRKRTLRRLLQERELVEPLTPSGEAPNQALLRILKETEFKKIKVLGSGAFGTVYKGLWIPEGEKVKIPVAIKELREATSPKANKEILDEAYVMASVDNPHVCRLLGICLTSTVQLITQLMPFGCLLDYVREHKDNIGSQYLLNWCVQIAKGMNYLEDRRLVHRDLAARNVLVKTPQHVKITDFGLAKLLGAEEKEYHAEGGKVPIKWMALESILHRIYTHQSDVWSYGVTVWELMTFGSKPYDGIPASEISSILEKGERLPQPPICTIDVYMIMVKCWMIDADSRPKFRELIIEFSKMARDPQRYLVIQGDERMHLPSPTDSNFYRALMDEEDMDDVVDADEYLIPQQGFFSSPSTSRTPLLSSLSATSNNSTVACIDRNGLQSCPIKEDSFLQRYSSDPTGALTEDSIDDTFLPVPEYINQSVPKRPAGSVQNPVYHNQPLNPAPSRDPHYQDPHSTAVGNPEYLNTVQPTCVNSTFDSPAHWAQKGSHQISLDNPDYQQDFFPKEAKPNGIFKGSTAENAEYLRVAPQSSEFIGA
# T5 sequence (P78368 whole entry): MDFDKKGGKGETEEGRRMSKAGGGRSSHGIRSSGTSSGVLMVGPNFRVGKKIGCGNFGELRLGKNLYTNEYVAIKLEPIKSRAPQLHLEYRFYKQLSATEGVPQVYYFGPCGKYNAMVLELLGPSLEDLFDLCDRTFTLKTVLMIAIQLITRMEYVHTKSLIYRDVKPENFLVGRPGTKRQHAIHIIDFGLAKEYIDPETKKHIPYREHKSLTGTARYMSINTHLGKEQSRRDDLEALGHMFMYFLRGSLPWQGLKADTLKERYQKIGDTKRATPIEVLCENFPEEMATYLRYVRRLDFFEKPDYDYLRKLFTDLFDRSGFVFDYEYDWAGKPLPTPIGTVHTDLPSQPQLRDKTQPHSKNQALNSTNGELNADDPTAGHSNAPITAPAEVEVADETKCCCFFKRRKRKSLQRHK
# T10 sequence (P49759 whole entry): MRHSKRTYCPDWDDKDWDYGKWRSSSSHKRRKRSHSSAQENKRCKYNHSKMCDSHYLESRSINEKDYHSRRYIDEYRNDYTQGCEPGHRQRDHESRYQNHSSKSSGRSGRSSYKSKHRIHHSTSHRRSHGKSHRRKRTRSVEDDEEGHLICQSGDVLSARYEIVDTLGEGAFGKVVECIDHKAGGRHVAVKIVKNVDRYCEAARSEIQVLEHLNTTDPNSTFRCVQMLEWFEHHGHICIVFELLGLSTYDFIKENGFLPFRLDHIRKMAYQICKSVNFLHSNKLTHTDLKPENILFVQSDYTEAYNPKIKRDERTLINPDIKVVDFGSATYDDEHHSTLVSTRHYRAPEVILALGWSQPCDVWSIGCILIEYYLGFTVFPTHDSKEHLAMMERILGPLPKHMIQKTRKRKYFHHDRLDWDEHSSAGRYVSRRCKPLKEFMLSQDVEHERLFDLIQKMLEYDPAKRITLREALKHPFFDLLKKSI
# T2 sequence (Q9NQU5 whole entry): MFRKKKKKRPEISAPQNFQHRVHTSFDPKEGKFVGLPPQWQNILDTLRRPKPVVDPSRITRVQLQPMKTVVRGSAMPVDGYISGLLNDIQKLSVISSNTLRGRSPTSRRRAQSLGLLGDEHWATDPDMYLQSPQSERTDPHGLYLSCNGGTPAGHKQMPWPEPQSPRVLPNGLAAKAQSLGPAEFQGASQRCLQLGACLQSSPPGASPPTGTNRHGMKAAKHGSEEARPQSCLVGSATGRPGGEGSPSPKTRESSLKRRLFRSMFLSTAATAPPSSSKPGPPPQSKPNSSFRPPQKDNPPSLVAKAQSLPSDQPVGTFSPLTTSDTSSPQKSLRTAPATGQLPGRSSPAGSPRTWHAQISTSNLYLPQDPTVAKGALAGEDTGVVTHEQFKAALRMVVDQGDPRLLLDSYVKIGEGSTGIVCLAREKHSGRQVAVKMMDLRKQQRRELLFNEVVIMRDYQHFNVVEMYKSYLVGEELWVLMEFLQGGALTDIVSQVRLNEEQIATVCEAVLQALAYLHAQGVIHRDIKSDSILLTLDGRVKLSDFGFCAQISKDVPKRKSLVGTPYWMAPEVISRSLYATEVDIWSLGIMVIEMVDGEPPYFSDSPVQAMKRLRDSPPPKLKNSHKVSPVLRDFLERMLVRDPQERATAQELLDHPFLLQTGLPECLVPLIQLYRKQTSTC
# T9 sequence (Q99558 whole entry): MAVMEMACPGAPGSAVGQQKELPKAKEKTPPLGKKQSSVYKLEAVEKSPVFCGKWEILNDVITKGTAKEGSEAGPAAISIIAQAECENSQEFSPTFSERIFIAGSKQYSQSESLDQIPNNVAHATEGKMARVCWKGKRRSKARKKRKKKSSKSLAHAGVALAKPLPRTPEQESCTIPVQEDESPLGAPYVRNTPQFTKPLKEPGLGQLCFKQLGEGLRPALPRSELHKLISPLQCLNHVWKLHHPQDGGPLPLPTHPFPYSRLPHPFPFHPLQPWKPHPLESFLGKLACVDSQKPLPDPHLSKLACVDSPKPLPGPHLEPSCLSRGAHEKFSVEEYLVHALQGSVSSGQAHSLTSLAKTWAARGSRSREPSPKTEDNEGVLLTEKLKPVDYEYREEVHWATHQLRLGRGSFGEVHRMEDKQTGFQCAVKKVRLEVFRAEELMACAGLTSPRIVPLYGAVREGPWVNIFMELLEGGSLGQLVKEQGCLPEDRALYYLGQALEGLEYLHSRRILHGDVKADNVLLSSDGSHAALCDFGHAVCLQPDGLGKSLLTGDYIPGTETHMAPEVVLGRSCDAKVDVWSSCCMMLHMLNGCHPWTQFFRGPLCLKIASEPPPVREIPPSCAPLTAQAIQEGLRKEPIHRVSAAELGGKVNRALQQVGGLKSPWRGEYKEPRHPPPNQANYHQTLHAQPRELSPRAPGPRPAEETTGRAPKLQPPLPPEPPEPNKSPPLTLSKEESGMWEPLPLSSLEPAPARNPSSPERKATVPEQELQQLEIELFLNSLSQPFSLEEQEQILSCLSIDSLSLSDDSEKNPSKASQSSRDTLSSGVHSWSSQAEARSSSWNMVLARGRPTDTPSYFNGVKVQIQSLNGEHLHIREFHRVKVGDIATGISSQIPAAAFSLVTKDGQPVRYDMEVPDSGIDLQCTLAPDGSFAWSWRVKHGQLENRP
structure (smiles),measurement,setting,value
CNC(=O)c1ccc2c(c1)C(=O)c1ccc(Nc3ccc(F)c(NC(=O)C4CC4)c3)cc1CC2 [Compound 2015],remaining activity at 0.2 µM,"340 wild-type kinases [1]; 0.2 µM 2015, read-out: FGFR2 residual activity",94.1%
same,remaining activity at 1 µM,"340 wild-type kinases [1]; 1 µM 2015, read-out: FGFR2 residual activity",96%
same,remaining activity at 0.2 µM,"340 wild-type kinases [1]; FGFR2, 0.2 µM, read-out: residual activity",94.1%
same,remaining activity at 1 µM,"340 wild-type kinases [1]; FGFR2, 1 µM, read-out: residual activity",96%
same,remaining activity at 0.2 µM,"340 wild-type kinases [2]; 0.2 µM 2015, read-out: PAK6 residual activity",98%
same,remaining activity at 1 µM,"340 wild-type kinases [2]; 1 µM 2015, read-out: PAK6 residual activity",89.3%
same,remaining activity at 0.2 µM,"340 wild-type kinases [2]; PAK6, 0.2 µM, read-out: residual activity",98%
same,remaining activity at 1 µM,"340 wild-type kinases [2]; PAK6, 1 µM, read-out: residual activity",89.3%
same,remaining activity at 0.2 µM,"340 wild-type kinases [3]; 0.2 µM 2015, read-out: MEKK3 residual activity",105%
same,remaining activity at 1 µM,"340 wild-type kinases [3]; 1 µM 2015, read-out: MEKK3 residual activity",101%
same,remaining activity at 0.2 µM,"340 wild-type kinases [3]; MEKK3, 0.2 µM, read-out: residual activity",105%
same,remaining activity at 1 µM,"340 wild-type kinases [3]; MEKK3, 1 µM, read-out: residual activity",101%
same,remaining activity at 0.2 µM,"340 wild-type kinases [4]; 0.2 µM 2015, read-out: PKMYT1 residual activity",98.1%
same,remaining activity at 1 µM,"340 wild-type kinases [4]; 1 µM 2015, read-out: PKMYT1 residual activity",102%
same,remaining activity at 0.2 µM,"340 wild-type kinases [4]; PKMYT1, 0.2 µM, read-out: residual activity",98%
same,remaining activity at 1 µM,"340 wild-type kinases [4]; PKMYT1, 1 µM, read-out: residual activity",102%
same,remaining activity at 0.2 µM,"340 wild-type kinases [5]; 0.2 µM 2015, read-out: CK1gamma2 residual activity",111%
same,remaining activity at 1 µM,"340 wild-type kinases [5]; 1 µM 2015, read-out: CK1gamma2 residual activity",113%
same,remaining activity at 0.2 µM,"340 wild-type kinases [5]; CK1gamma2, 0.2 µM, read-out: residual activity",111%
same,remaining activity at 1 µM,"340 wild-type kinases [5]; CK1gamma2, 1 µM, read-out: residual activity",113%
same,remaining activity at 0.2 µM,"340 wild-type kinases [6]; 0.2 µM 2015, read-out: EGFR residual activity",108%
same,remaining activity at 1 µM,"340 wild-type kinases [6]; 1 µM 2015, read-out: EGFR residual activity",96.6%
same,remaining activity at 0.2 µM,"340 wild-type kinases [6]; EGFR, 0.2 µM, read-out: residual activity",108%
same,remaining activity at 1 µM,"340 wild-type kinases [6]; EGFR, 1 µM, read-out: residual activity",96.6%
same,remaining activity at 0.2 µM,"340 wild-type kinases [7]; 0.2 µM 2015, read-out: CDK2/CycA2 residual activity",92.5%
same,remaining activity at 0.2 µM,"340 wild-type kinases [7]; 0.2 µM 2015, read-out: CDK2/CycD1 residual activity",90.3%
same,remaining activity at 0.2 µM,"340 wild-type kinases [7]; 0.2 µM 2015, read-out: CDK2/CycE1 residual activity",121%
same,remaining activity at 1 µM,"340 wild-type kinases [7]; 1 µM 2015, read-out: CDK2/CycA2 residual activity",87.2%
same,remaining activity at 1 µM,"340 wild-type kinases [7]; 1 µM 2015, read-out: CDK2/CycD1 residual activity",96.5%
same,remaining activity at 1 µM,"340 wild-type kinases [7]; 1 µM 2015, read-out: CDK2/CycE1 residual activity",109%
same,remaining activity at 0.2 µM,"340 wild-type kinases [7]; CDK2/CycA2, 0.2 µM, read-out: residual activity",92.5%
same,remaining activity at 1 µM,"340 wild-type kinases [7]; CDK2/CycA2, 1 µM, read-out: residual activity",87.2%
same,remaining activity at 0.2 µM,"340 wild-type kinases [7]; CDK2/CycD1, 0.2 µM, read-out: residual activity",90.3%
same,remaining activity at 1 µM,"340 wild-type kinases [7]; CDK2/CycD1, 1 µM, read-out: residual activity",96.5%
same,remaining activity at 0.2 µM,"340 wild-type kinases [7]; CDK2/CycE1, 0.2 µM, read-out: residual activity",121%
same,remaining activity at 1 µM,"340 wild-type kinases [7]; CDK2/CycE1, 1 µM, read-out: residual activity",109%
same,remaining activity at 0.2 µM,"340 wild-type kinases [8]; 0.2 µM 2015, read-out: SGK2 residual activity",109%
same,remaining activity at 1 µM,"340 wild-type kinases [8]; 1 µM 2015, read-out: SGK2 residual activity",104%
same,remaining activity at 0.2 µM,"340 wild-type kinases [8]; SGK2, 0.2 µM, read-out: residual activity",109%
same,remaining activity at 1 µM,"340 wild-type kinases [8]; SGK2, 1 µM, read-out: residual activity",104%
same,remaining activity at 0.2 µM,"340 wild-type kinases [9]; 0.2 µM 2015, read-out: NIK residual activity",113%
same,remaining activity at 1 µM,"340 wild-type kinases [9]; 1 µM 2015, read-out: NIK residual activity",90.5%
same,remaining activity at 0.2 µM,"340 wild-type kinases [9]; NIK, 0.2 µM, read-out: residual activity",113%
same,remaining activity at 1 µM,"340 wild-type kinases [9]; NIK, 1 µM, read-out: residual activity",90.5%
same,remaining activity at 0.2 µM,"340 wild-type kinases [10]; 0.2 µM 2015, read-out: CLK1 residual activity",98.6%
same,remaining activity at 1 µM,"340 wild-type kinases [10]; 1 µM 2015, read-out: CLK1 residual activity",93%
same,remaining activity at 0.2 µM,"340 wild-type kinases [10]; CLK1, 0.2 µM, read-out: residual activity",98.6%
same,remaining activity at 1 µM,"340 wild-type kinases [10]; CLK1, 1 µM, read-out: residual activity",93%
same,remaining activity at 0.2 µM,"340 wild-type kinases [11]; 0.2 µM 2015, read-out: FGR residual activity",101%
same,remaining activity at 1 µM,"340 wild-type kinases [11]; 1 µM 2015, read-out: FGR residual activity",102%
same,remaining activity at 0.2 µM,"340 wild-type kinases [11]; FGR, 0.2 µM, read-out: residual activity",101%
same,remaining activity at 1 µM,"340 wild-type kinases [11]; FGR, 1 µM, read-out: residual activity",102%
